pIC50: −log10 of the molar value. Where two headings read alike, the source gives them in different places.
How the values were obtained:
BTK [1] = target: T1, BTK (Homo sapiens (Human), UniProt Q06187); experiment: BTK Ramos cellular assay (PLCγ2 phosphorylation); assay type: cell-based; details: Ramos cells, 1 hour compound, anti-IgM stimulation, p-PLCγ2; read-out: BTK Inhibition (IC50), BTK Ramos cellular inhibition
Experimental: Ramos cells were grown in suspension in T225 flasks, spun down, resuspended in 50 ml serum-free media and incubated for 1 hour. […] Ramos cells were incubated with compound for 1 hour, washed again and resuspended in 100 ul serum-free media. Cells were then stimulated with 1 μg of goat F(ab′)2 Anti-Human IgM and incubated on ice for 10 minutes to activate B cell receptor signaling pathways. After 10 minutes, the cells were washed once with PBS and then lysed on ice with Invitrogen Cell Extraction buffer. 16 μg total protein from lysates were loaded on gel and blots were probed for phosphorylation of the BTK substrate PLCγ2.

BTK [2] = target: T1, BTK; experiment: Omnia assay for potency assessment against BTK; assay type: biochemical; details: [BTK]=5 nM, Omnia assay; read-out: BTK Inhibition (IC50)
Experimental: The modified BTK-optimized reagent conditions for the above protocol are:
[BTK]=5 nM, [ATP]=[…], [Y5-Sox]=[…] (ATP KMapp˜[…]).

EGFR-WT = EGFR-WT (Homo sapiens (Human), UniProt P00533); experiment: Omnia assay for potency assessment against EGFR (WT)
ITK = ITK (Homo sapiens (Human), UniProt Q08881); experiment: Omnia assay for potency assessment against active forms of ITK kinase; assay type: biochemical; details: [ITK]=10 nM, [ATP]=25, [Y6-Sox]=10 μM; read-out: ITK Inhibition
Experimental: [ITK]=10 nM, [ATP]=25 [Y6-Sox]=10 μM (ATP KMapp=33 μM).

[3] = read-out: EGFR (wild type inhibition), EGFR wild type

T1 sequence (Q06187 whole entry): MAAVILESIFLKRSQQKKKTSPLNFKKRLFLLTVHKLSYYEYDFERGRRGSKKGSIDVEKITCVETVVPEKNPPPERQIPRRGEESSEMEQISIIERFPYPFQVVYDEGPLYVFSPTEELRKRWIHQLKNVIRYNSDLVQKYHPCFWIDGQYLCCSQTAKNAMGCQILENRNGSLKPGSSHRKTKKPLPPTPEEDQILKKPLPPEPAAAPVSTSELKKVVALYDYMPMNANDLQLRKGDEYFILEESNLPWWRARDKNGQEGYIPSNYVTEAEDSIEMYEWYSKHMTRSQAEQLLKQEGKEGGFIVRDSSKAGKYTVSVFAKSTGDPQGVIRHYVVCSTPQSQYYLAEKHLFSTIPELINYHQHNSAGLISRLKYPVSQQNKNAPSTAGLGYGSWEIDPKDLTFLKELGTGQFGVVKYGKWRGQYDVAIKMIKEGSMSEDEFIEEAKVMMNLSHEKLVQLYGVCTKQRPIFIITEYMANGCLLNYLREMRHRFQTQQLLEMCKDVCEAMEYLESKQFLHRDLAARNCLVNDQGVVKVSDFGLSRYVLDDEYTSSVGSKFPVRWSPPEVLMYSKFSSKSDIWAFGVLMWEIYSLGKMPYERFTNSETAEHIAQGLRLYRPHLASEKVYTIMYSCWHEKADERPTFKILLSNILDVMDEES
EGFR-WT, sequence (P00533 668-1210): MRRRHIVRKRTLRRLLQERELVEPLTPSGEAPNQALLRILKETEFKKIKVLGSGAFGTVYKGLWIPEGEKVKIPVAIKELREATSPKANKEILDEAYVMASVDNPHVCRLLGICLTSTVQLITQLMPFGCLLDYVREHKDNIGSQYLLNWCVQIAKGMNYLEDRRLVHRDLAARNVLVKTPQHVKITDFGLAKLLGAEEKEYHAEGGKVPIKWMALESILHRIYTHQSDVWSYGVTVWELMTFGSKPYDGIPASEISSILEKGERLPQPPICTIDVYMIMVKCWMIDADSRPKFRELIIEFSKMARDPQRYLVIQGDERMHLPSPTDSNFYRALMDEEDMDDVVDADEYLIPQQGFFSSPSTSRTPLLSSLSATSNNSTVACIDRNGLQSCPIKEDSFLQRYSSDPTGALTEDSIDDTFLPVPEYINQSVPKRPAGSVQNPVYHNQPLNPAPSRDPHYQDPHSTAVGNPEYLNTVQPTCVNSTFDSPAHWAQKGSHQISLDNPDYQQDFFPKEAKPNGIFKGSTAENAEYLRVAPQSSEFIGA
ITK, sequence (Q08881 whole entry): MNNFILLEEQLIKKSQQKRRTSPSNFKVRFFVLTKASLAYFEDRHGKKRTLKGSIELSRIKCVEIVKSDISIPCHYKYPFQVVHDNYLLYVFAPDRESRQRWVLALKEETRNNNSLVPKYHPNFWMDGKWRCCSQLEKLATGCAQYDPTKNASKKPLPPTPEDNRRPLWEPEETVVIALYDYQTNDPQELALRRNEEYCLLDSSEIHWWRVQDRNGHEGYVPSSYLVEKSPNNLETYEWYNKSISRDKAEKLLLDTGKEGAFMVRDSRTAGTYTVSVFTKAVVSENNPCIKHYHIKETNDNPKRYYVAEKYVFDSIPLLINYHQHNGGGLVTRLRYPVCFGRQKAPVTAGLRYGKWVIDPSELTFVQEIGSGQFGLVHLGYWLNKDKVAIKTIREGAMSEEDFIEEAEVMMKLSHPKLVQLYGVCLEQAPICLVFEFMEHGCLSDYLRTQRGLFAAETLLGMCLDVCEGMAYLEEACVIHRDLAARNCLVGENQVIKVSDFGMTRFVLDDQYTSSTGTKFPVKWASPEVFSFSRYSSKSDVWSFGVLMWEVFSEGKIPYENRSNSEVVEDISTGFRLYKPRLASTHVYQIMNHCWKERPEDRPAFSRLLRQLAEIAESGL

| SMILES | pIC50 (BTK [1]) | pIC50 (BTK [2]) | pIC50 (EGFR-WT) | pIC50 (ITK) | pIC50 (EGFR-WT; [3]) |
| --- | --- | --- | --- | --- | --- |
| C=CC(=O)Nc1cc(Nc2nc(Nc3ccc(OCCOC)cc3)ncc2F)ccc1F [Compound I-87, N-(2-fluoro-5-(5-fluoro-2-(4-(2-methoxyethoxy)phenylamino)pyrimidin-4-ylamino)phenyl)acrylamide] | > 8.00 | > 8.00 | 7.00 to 8.00 | – | – |
| C=CC(=O)Nc1cccc(Nc2nc(Nc3ccc(OC)nc3)ncc2C(C)=O)c1 [Compound I-189, N-{3-[5-Acetyl-2-(6-methoxy-pyridin-3-ylamino)-pyrimidin-4-ylamino]-phenyl}-acrylamide] | 7.00 to 8.00 | > 8.00 | 7.00 to 8.00 | > 8.00 | – |
| C=CC(=O)N1CCOc2ccc(Nc3nc(Nc4ccc(OCCOC)cc4)ncc3C(C)=O)cc21 [Compound I-150, 1-(6-{5-Acetyl-2-[4-(2-methoxy-ethoxy)-phenylamino]-pyrimidin-4-ylamino}-2,3-dihydro-benzo[1,4]oxazin-4-yl)-propenone] | 7.00 to 8.00 | > 8.00 | – | > 8.00 | > 8.00 |
| C=CC(=O)Nc1cccc(Nc2nc(Nc3ccc(OCc4ccccn4)c(Cl)c3)ncc2F)c1 [Compound I-86, N-(3-(2-(3-chloro-4-(pyridin-2-ylmethoxy)phenylamino)-5-fluoropyrimidin-4-ylamino)phenyl)acrylamide] | > 8.00 | > 8.00 | – | – | 5.00 to 6.00 |
| C=CC(=O)Nc1cccc(Oc2nc(Nc3ccc(OC)nc3)ncc2C)c1 [Compound I-186, N-(3-(2-(6-methoxypyridin-3-ylamino)-5-methylpyrimidin-4-yloxy)phenyl)acrylamide] | > 8.00 | > 8.00 | – | > 8.00 | > 8.00 |
| C=CC(=O)Nc1cccc(Nc2nc(Nc3cccc(OC)c3)ncc2C(N)=O)c1 [Compound I-210, 4-(3-acrylamidophenylamino)-2-(3-methoxyphenylamino)pyrimidine-5-carboxamide] | > 8.00 | > 8.00 | – | 7.00 to 8.00 | 7.00 to 8.00 |
| C=CC(=O)Nc1cccc(Nc2nc(Nc3ccc(OC)nc3)ncc2C2CC2)c1 [Compound I-167, N-(3-(5-cyclopropyl-2-(6-methoxypyridin-3-ylamino)pyrimidin-4-ylamino)phenyl)acrylamide] | 7.00 to 8.00 | > 8.00 | – | > 8.00 | > 8.00 |
| C=CC(=O)Nc1cccc(Nc2nc(Nc3cccc(OCCN(C)C)c3)ncc2F)c1 [Compound I-233, N-(3-(2-(3-(2-(dimethylamino)ethoxy)phenylamino)-5-fluoropyrimidin-4-ylamino)phenyl)acrylamide] | > 8.00 | > 8.00 | – | > 8.00 | > 8.00 |
| C=CC(=O)Nc1cccc(Nc2nc(Nc3cccc(OC(C)(C)CO)c3)ncc2F)c1 [Compound I-91, N-(3-(5-fluoro-2-(3-(1-hydroxy-2-methylpropan-2-yloxy)phenylamino)pyrimidin-4-ylamino)phenyl)acrylamide] | – | > 8.00 | 7.00 to 8.00 | 7.00 to 8.00 | – |
| C=CC(=O)Nc1cccc(Nc2nc(Nc3cccc(OCCCNC(=O)OC(C)(C)C)c3)ncc2F)c1 [Compound I-183, tert-butyl 3-(3-(4-(3-acrylamidophenylamino)-5-fluoropyrimidin-2-ylamino)phenoxy)propylcarbamate] | – | > 8.00 | – | 6.00 to 7.00 | 5.00 to 6.00 |
| C=CC(=O)Nc1cccc(Oc2nc(Nc3cccc(OC)c3)ncc2C(=O)Nc2ccccc2)c1 [Compound I-200, 4-(3-acrylamidophenoxy)-2-(3-methoxyphenylamino)-pyrimidine-5-carboxylic acid phenylamide] | – | > 8.00 | – | < 5.00 | > 8.00 |
| C=CC(=O)Nc1cccc(Nc2nc(Nc3ccc(O[C@@H]4CCOC4)nc3)ncc2F)c1 [Compound I-69, (R)—N-(3-(5-fluoro-2-(6-(tetrahydrofuran-3-yloxy)pyridin-3-ylamino)pyrimidin-4-ylamino)phenyl)acrylamide] | – | > 8.00 | 7.00 to 8.00 | 7.00 to 8.00 | – |
| C=CC(=O)Nc1cccc(Nc2nc(Nc3cccc(OCC4CCCN(C)C4)c3)ncc2F)c1 (stereo not drawn) [Compound I-76, N-(3-(5-fluoro-2-(3-((1-methylpiperidin-3-yl)methoxy)phenylamino)pyrimidin-4-ylamino)phenyl)-acrylamide] | – | > 8.00 | – | > 8.00 | > 8.00 |
| COCCOc1ccc(Nc2ncc(F)c(Nc3cccc(NC(=O)/C=C/CN4CC[C@@H](O)C4)c3)n2)cc1 [Compound I-89, (R,E)-N-(3-(5-fluoro-2-(4-(2-methoxyethoxy)phenylamino)pyrimidin-4-ylamino)phenyl)-4-(3-hydroxypyrrolidin-1-yl)but-2-enamide] | – | > 8.00 | 7.00 to 8.00 | 7.00 to 8.00 | – |
| C=CC(=O)Nc1cccc(Nc2nc(Nc3cccc(OCCCNC(=O)CCCC(=O)NCCCOCCOCCOCCCNC(=O)CCCC[C@H]4SC[C@H]5NC(=O)N[C@H]54)c3)ncc2C)c1 [Compound I-215, N^1-(3-(3-(4-(3-acrylamidophenylamino)-5-methylpyrimidin-2-ylamino)phenoxy)propyl)-N^5-(15-oxo-19-((3aR,4R,6aS)-2-oxohexahydro-1H-thieno[3,4-d]imidazol-4-yl)-4,7,10-trioxa-14-azanonadecyl)glutaramide] | – | > 8.00 | 7.00 to 8.00 | 7.00 to 8.00 | – |
| C=CC(=O)Nc1cccc(Nc2nc(Nc3ccc(O[C@H]4CCOC4)nc3)ncc2F)c1 [Compound I-54] | – | > 8.00 | 7.00 to 8.00 | 7.00 to 8.00 | – |
| C=CC(=O)Nc1cccc(Nc2nc(Nc3ccc(OCCN4CCCC4=O)nc3)ncc2F)c1 [Compound I-70, N-(3-(5-fluoro-2-(6-(2-(2-oxopyrrolidin-1-yl)ethoxy)pyridin-3-ylamino)pyrimidin-4-ylamino)phenyl)acrylamide] | – | > 8.00 | 7.00 to 8.00 | > 8.00 | – |
| C=C(C)C(=O)c1cccc(Nc2nc(Nc3cccc(OC(F)(F)F)c3)ncc2F)c1 [Compound I-199, 1-(3-(5-fluoro-2-(3-(trifluoromethoxy)phenylamino)pyrimidin-4-ylamino)phenyl)-2-methylprop-2-en-1-one] | – | > 8.00 | 7.00 to 8.00 | 7.00 to 8.00 | – |
| COCCOc1ccc(Nc2ncc(F)c(Nc3cccc(NC(=O)/C=C/CN4CC[C@H](O)C4)c3)n2)cc1 [Compound I-88, (S,E)-N-(3-(5-fluoro-2-(4-(2-methoxyethoxy)phenylamino)pyrimidin-4-ylamino)phenyl)-4-(3-hydroxypyrrolidin-1-yl)but-2-enamide] | – | > 8.00 | 7.00 to 8.00 | 7.00 to 8.00 | – |

Next, values leading:

| pIC50 (BTK [1]) | pIC50 (BTK [2]) | pIC50 (EGFR-WT) | pIC50 (ITK) | pIC50 (EGFR-WT; [3]) | SMILES |
| --- | --- | --- | --- | --- | --- |
| – | > 8.00 | 7.00 to 8.00 | > 8.00 | – | C=C(C)C(=O)c1cccc(Nc2nc(Nc3ccc(OCCOC)c(F)c3)ncc2F)c1 [Compound I-322, 1-(3-(5-fluoro-2-(3-fluoro-4-(2-methoxyethoxy)phenylamino)pyrimidin-4-ylamino)phenyl)-2-methylprop-2-en-1-one] |
| – | > 8.00 | 7.00 to 8.00 | 7.00 to 8.00 | – | C=CC(=O)Nc1cccc(Nc2nc(Nc3ccc(OC[C@@H]4C[C@@H](O)CN4)c(F)c3)ncc2F)c1 [Compound I-355] |
| – | > 8.00 | 6.00 to 7.00 | 7.00 to 8.00 | – | C=CC(=O)Nc1cccc(Nc2nc(Nc3ccc(Cl)c(O[C@@H](C)CO)c3)ncc2F)c1 [Compound I-357, (S)—N-(3-(2-(4-chloro-3-(1-hydroxypropan-2-yloxy)phenylamino)-5-fluoropyrimidin-4-ylamino)phenyl)acrylamide] |
| – | > 8.00 | 7.00 to 8.00 | > 8.00 | – | C=CC(=O)Nc1cccc(Nc2nc(Nc3ccc(OCCOCCOC)c(F)c3)ncc2F)c1 [Compound I-359, N-(3-(5-fluoro-2-(3-fluoro-4-(2-(2-methoxyethoxy)ethoxy)-phenylamino)pyrimidin-4-ylamino)phenyl)acrylamide] |
| – | > 8.00 | 7.00 to 8.00 | 7.00 to 8.00 | – | C=CC(=O)Nc1cccc(Nc2nc(Nc3ccc(Cl)c(OCC(O)CO)c3)ncc2F)c1 (stereo not drawn) [Compound I-353, N-(3-(2-(4-chloro-3-(2,3-dihydroxypropoxy)phenylamino)-5-fluoropyrimidin-4-ylamino)phenyl)acrylamide] |
| – | > 8.00 | 7.00 to 8.00 | > 8.00 | – | C=C(C)C(=O)Cc1ccc(Nc2nc(Nc3ccc(OCCOC)c(F)c3)ncc2F)cc1 [Compound I-329, 1-(4-(5-fluoro-2-(3-fluoro-4-(2-methoxyethoxy)phenylamino)pyrimidin-4-ylamino)phenyl)-3-methylbut-3-en-2-one] |
| – | > 8.00 | 7.00 to 8.00 | 7.00 to 8.00 | – | C=CC(=O)Nc1cccc(Nc2nc(Nc3ccc(OC(C)CO)c(F)c3)ncc2F)c1 (stereo not drawn) [Compound I-333, N-(3-(5-fluoro-2-(3-fluoro-4-(1-hydroxypropan-2-yloxy)phenylamino)pyrimidin-4-ylamino)phenyl)acrylamide] |
| – | > 8.00 | 6.00 to 7.00 | 6.00 to 7.00 | – | C=CC(=O)Nc1cccc(Nc2nc(Nc3ccc(Cl)c(OC(C)(C)CO)c3)ncc2F)c1 [Compound I-336, N-(3-(2-(4-chloro-3-(1-hydroxy-2-methylpropan-2-yloxy)phenylamino)-5-fluoropyrimidin-4-ylamino)phenyl)acrylamide] |
